The results in this text go back to US10987349B2, “Antitumor agent and bromodomain inhibitor” (FUJIFILM Corporation, priority 2016, dated 2021).

For test [1], the system named is MKN45. Briefly: Cell growth test (Cell Titer Blue) MKN45. It is filed as cell-based. The settings on record: Homo sapiens, MKN-45, 72 h, MKN45, Stomach cancer, 3 days. As to the method: (§1) Moreover, the compound of Example 14 was subjected to a cell growth test using various types of cell lines.
(§2) All cell lines other than the below-noticed cells were each seeded in a well plate, in which an RPMI-1640 medium supplemented with penicillin/streptomycin and FBS with a final concentration of 10% was placed. The human prostate cancer cell line VCaP (ATCC) was seeded in a well plate, in which DMEM medium supplemented with penicillin/streptomycin and FBS with a final concentration of 10% was placed. […] Thereafter, using Enspire Multimode Plate Reader (PerkinElmer), the amount of fluorescence at an excitation wavelength of 531 nm and a fluorescence wavelength of 615 nm was measured. Since the amount of fluorescence is in proportion to the concentration of a florescent product resorufin that is converted from resazurin as a redox dye by living cells, the amount of fluorescence was used as an indicator of the number of living cells. The growth inhibition percentage of the test compound in each concentration was calculated according to the following equation. Growth inhibition percentage (%)=(amount of fluorescence in test compound−added well)/(amount of fluorescence in DMSO−added well)×100 […]
A general note: The colour change of resazurin is a common sign of viable cells or microbes.

The subject of test [2] is NCI-H460. Briefly: Cell growth test (Cell Titer Blue) NCI-H460. Type of test: cell-based. The settings on record: Homo sapiens, 72 h, NCI-H460, Lung cancer, 3 days. As to the method: as §1, §2
Test [3] concerns SU-DHL-1. Briefly: Cell growth test (Cell Titer Blue) SU-DHL-1. Type of test: cell-based. The settings on record: Homo sapiens, 72 h, SU-DHL-1, Lymphoma, 3 days. As to the method: as §1, §2
Test [4] deals with HEXIM1 gene. Briefly: Expression of HEXIM1 gene in MV4-11 cells, RT-PCR. Type of test: cell-based, human. To be noted: MV4-11 cells, 10, 30 or 100 nmol/L, 6 hours. Here is the method: A fluctuation in the expression of c-Myc, IL-7R and HEXIM1 genes in MV4-11 (ATCC) cells treated with the test compound was analyzed according to a reverse transcription polymerase chain reaction (RT-PCR) method.
MV4-11 cells were cultured for 6 hours in an RPMI-1640 medium supplemented with penicillin/streptomycin and FBS with a final concentration of 10%, to which the compound of Example 14 was added to a concentration of 10 nmol/L, 30 nmol/L or 100 nmol/L. On the other hand, a non-treatment group (Non-treatment) was established by culturing MV4-11 cells for 6 hours in the above-described medium, to which the compound of Example 14 was not added. Using Rneasy (registered trademark) (Qiagen), RNA was extracted from the above-described MV4-11 cells in accordance with the instruction manual included with the aforementioned device. […] Thereafter, a PCR reaction was carried out for 40 cycles (a cycle consisting of 95° C.-5 seconds and 60° C.-30 seconds.) Subsequently, the obtained reaction product was measured.
As a housekeeping gene, the expression level of GAPDH (Glyceraldehyde 3-phosphate dehydrogenase) was also evaluated. The ratio of the expression level of the mRNA of each of c-Myc, IL-7R and HEXIM1 to the expression level of GAPDH was calculated, and the expression level of each gene (relative expression level) was then quantified. […]

For test [5], the system named is MM.1S. Briefly: Cell growth test (Cell Titer Blue) MM.1S. Type of test: cell-based. To be noted: Homo sapiens, MM1.S, 72 h, Myeloma, 3 days. As to the method:
as §1, §2

The test system of test [6] is T-24. In words: Cell growth test (Cell Titer Blue) T-24. Type of test: cell-based. The settings on record: Homo sapiens, 72 h, T-24, Bladder cancer, 3 days. As to the method:
as §1, §2

The subject of test [7] is MOLT-3. In words: Cell growth test (Cell Titer Blue) MOLT-3. It is filed as cell-based. The settings on record: Homo sapiens, 72 h, MOLT-3, Acute lymphoblastic leukemia, 3 days. As to the method: as §1, §2
Test [8] has as its system human prostate cancer cell line VCaP. In words: Cell growth test (Cell Titer Blue) VCaP. It is filed as cell-based. To be noted: 72 h, 3 days. As to the method:
as §1, §2

Test [9] relates to T47D. In words: Cell growth test (Cell Titer Blue) T47D. It is filed as cell-based. The settings on record: Homo sapiens, 72 h, Breast cancer, 3 days. Here is the method: as §1, §2
The test system of test [10] is HL-60. In words: Cell growth test (Cell Titer Blue) HL-60. The settings on record: Homo sapiens, 72 h, HL-60, Acute myeloid leukemia, 3 days. It is filed as cell-based. As to the method:
as §1, §2

Test [11] has as its system LNCaP. In words: Cell growth test (Cell Titer Blue) LNCaP. It is filed as cell-based. To be noted: Homo sapiens, 72 h, Prostate cancer, 3 days. As to the method: as §1, §2
Test [12] concerns KG-1. In words: Cell growth test (Cell Titer Blue) KG-1. It is filed as cell-based. To be noted: Homo sapiens, 72 h, KG-1, Acute myeloid leukemia, 3 days. Here is the method: as §1, §2
In test [13] the test system is BxPC-3. In words: Cell growth test (Cell Titer Blue) BxPC-3. Type of test: cell-based. The settings on record: Homo sapiens, 72 h, BxPC-3, Pancreatic cancer, 3 days. Here is the method:
as §1, §2

Test [14] concerns PC-3. Briefly: Cell growth test (Cell Titer Blue) PC-3. It is filed as cell-based. To be noted: Homo sapiens, 72 h, PC-3, Prostate cancer, 3 days. As to the method:
as §1, §2

The test system of test [15] is MDA-MB-468. Briefly: Cell growth test (Cell Titer Blue) MDA-MB-468. Type of test: cell-based. The settings on record: Homo sapiens, 72 h, MDA-MB-468, Breast cancer, 3 days. Here is the method:
as §1, §2

For test [16], the system named is DU-145. Briefly: Cell growth test (Cell Titer Blue) DU-145. Type of test: cell-based. The settings on record: Homo sapiens, 72 h, DU-145, Prostate cancer, 3 days. Here is the method:
as §1, §2

Regarding `CCn1c(=O)cc(C2CCN(C)CC2)c2cc(C(=O)N(C)c3ccc(C)cc3)ccc21` [Example 14, 1-Ethyl-N-methyl-N-(4-methylphenyl)-4-(1-methylpiperidin-4-yl)-2-oxo-1,2-dihydroquinoline-6-carboxamide], the GI50 (usually the concentration at which growth is held to half of that of the control) in test [1] came out at 2180 nM; in test [2] it was 2030 nM; in [3] it was 1260 nM; in test [5], 84 nM; in test [6], 3040 nM; in test [7], 317 nM. For the same molecule, the GI50 in test [8] stood at 361 nM; in test [9] it was 286 nM; in test [10] it was 27 nM; in test [11] it was 64 nM; in [12], 57 nM; in [13] it was 2550 nM. The GI50 in [14] is 175 nM; in [15], 1200 nM; in [16] it was 1430 nM. For the same molecule, the “mRNA expression of HEXIM1 (GAPDH correction)” value in [4] was “increased”.
